Measured values taken from PMC7570620, “Synthesis and Evaluation of the Antitumor Activity of Novel 1-(4-Substituted phenyl)-2-ethyl Imidazole Apoptosis Inducers In Vitro” (Molecules, 2020).

Legend:
A549 = assay: MTT cell viability assay, A549; assay type: cell-based; conditions: Homo sapiens, 24 h incubation, mean ± SD, n = 4
Experimental: (§1) The synthesized compounds were subjected to a cytotoxicity assay using the MTT method, as described previously. IC50 is defined as the drug concentration causing a 50% reduction in cell numbers compared to the untreated control. For screening, we evaluated the effects of the compounds on the growth of three cancer cell lines (A549, SGC-7901, and HeLa). In addition, their toxicities were tested using one normal cell line (L-02). The results are the averages of four separate measurements. MTX and 5-FU served as positive controls.
(§2) The three cancer cell lines namely the human lung cancer cell line (A549), human cervical cancer cell line (HeLa), human gastric carcinoma cell line (SGC-7901), and normal liver cell line (L-02) were acquired from the American Type Culture Collection (Manassas, VA, USA). A549 and SGC-7901 cells were routinely cultured in RPMI-1640. In addition, HeLa and L-02 cells were routinely cultured in DMEM. Media was supplemented with 10% fetal bovine serum (FBS). Cells were maintained at subconfluency at 37 °C in humidified air containing 5% CO2. The cells were monitored daily and maintained at 80% cell density. All compounds tested were dissolved in DMSO and then diluted by the culture medium before the treatment of cultured cells.
(§3) Cytotoxicity of the tested samples was measured against each cell line using the 3-(4,5-dimethylthiazol-2-yl)-2,5-diphenyltetrazolium bromide (MTT) cell viability assay (Maher et al., 2019). Cancer cells (A549, SGC-7901, and HeLa) and L-02 normal cells were harvested during the logarithmic growth phase. All cells were seeded in 96-well plates at 10^4 cells/well and were treated with 5-fluorouracil (5-FU), methotrexate (MTX), and the tested samples for 24 h at final concentrations of […]. Next, 20 µL of freshly prepared MTT (Solarbio) solution (5 mg/mL of MTT in PBS) was added to each well, and the cells were cultured for 4 h at 37 °C. The supernatants were removed and resolved with 100 µL of DMSO, and the cells were shocked for 10 min at 37 °C. The optical density of the samples was measured at 490 nm using a microplate luminometer. Cell viability was expressed as the percentage change in absorbance compared to the control values.

L-02 = assay: MTT cytotoxicity in normal cell line L-02; assay type: cell-based; conditions: for IC50: Homo sapiens, L02, normal cell line L-02, MTT; for Selectivity Index A549: IC50 in normal cells (L-02)/IC50 in tumor cells (A549); for Selectivity Index HeLa: IC50 in normal cells (L-02)/IC50 in tumor cells (HeLa); for Selectivity Index SGC-7901: IC50 in normal cells (L-02)/IC50 in tumor cells (SGC-7901)
Experimental: as §1
The lack of selectivity between normal and cancer cells is one of the primary limitations of antitumor drugs. We evaluated the cytotoxicity of compounds 4c, 4e–4i, 4l, 4m, and 4q in the normal cell line L-02 to determine the selectivity index (defined as the ratio of cytotoxicity in L-02 cells compared to that in cancer cells). […] Compound 4q yielded satisfactory SI values in HeLa and SGC-7901 cells but an unsatisfactory SI value in A549 cells. […] Compound 4f was selected for the subsequent biological studies.
as §2, §3

HeLa cells [1] = assay: Hoechst/PI double staining apoptosis analysis; assay type: cell-based, human; conditions: 24 h, 4f 3.24 µM (legend: 4 µM), 5-FU 18 µM
Experimental: Apoptosis and necrosis were analyzed by Hoechst/propidium iodide (CA1120, Solarbio, Beijing, China) double staining. HeLa cells were seeded in six-well plates (10^4 cells/well) and treated with IC50 concentrations of 5-FU or one of the tested derivatives for 0, 3, 6, 12, and 24 h. Next, the cells were collected and washed once in phosphate-buffered saline (PBS). The cells were then resuspended in 195 µL of binding buffer, and dual staining was performed with 3 µL of Hoechst and 3 µL of PI. Next, the cells were incubated for 15 min at room temperature in the dark. Apoptotic cells were analyzed using the EVOS FL Auto Cell Imaging System (Thermo Fisher Scientific, Shanghai, China).
(A) HeLa cells were treated with 4 µM of 4f or 18 µM of 5-FU for 0, 3, 6, 12, or 24 h and were stained using the Hoechst/PI solution. Morphology and fluorescence intensity were examined under a fluorescence microscope (magnification: ×200). (B) Quantification of the percentages of apoptotic cells. Error bars indicate the mean ± SD of three independent experiments (* p < 0.05, ** p < 0.01, and *** p < 0.001 indicate significant differences).

SGC-7901 = assay: MTT cell viability assay, SGC-7901; assay type: cell-based; conditions: Homo sapiens, 24 h incubation, mean ± SD, n = 4
Experimental: as §1, §2, §3

HeLa = assay: MTT cell viability assay, HeLa; assay type: cell-based; conditions: Homo sapiens, 24 h incubation, mean ± SD, n = 4
Experimental: as §1, §2, §3

HeLa cells [2] = assay: Western blot of apoptotic proteins; assay type: cell-based, human
Experimental: The results of the Western blot analysis were expressed as the relative ratio of the specific compound band compared with the internal reference.
For performing Western blot analysis, the cells were washed with PBS and lysis buffer (P0013B, Beyotime). After incubation on ice for 30 min, the homogenate was centrifuged at 12,000g for 15 min at 4 °C, and the supernatant was used for protein analysis. Protein concentration was determined using the BCA protein assay (P0012S, Beyotime, Beijing, China). Sodium dodecyl sulfate-polyacrylamide gel electrophoresis was performed using the Bio-Rad Mini-Protean Tetra System (Bio-Rad, Hercules, CA, US). The proteins on the gel were then transferred onto polyvinylidene fluoride membranes (PVDF, Millipore, Beijing, China) for 2 h at 200 mA and blocked for 2 h with 5% skim milk at room temperature to prevent nonspecific binding. The blots were probed with the indicated primary antibodies followed by horseradish peroxidase (HRP)-conjugated goat anti-rabbit or anti-mouse IgG (Beyotime). Rabbit anti-Bcl-2 and mouse anti-actin antibodies were purchased from Beyotime. Rabbit anti-Bax, anti-Caspass-3, and anti-PARP monoclonal antibodies were purchased from Cell Signaling Technology (Danvers, MA, USA).
Figure 4 Apoptotic effects of 4f on HeLa cells. (A) The effect of compound 4f on the expression levels of Bax, Bcl-2, Caspase 3, and cle-PARP in HeLa cells was analyzed using Western blotting. (B) Densitometric quantification. * p < 0.05, ** p < 0.01, and *** p < 0.001 relative to the control group (0 h). Bcl-2, B-cell lymphoma 2; Bax, […]; cle-PARP, cleaved poly ADP-ribose polymerase.

[3] = tested on: lung and liver cancer cells; assay: Preliminary in vitro antitumor activity of lead compounds I and II; assay type: cell-based; conditions: preliminary work of this paper; Figure 2
Excerpt: To identify new apoptosis-inducing candidates, we attempted to modify the structure of imidazole and its analogs. Imidazole and the related azole moiety are significant pharmacophores in various clinical drugs including antitumor agents. […] The antitumor potency of Tanshinone-IIA has been enhanced by the introduction of an imidazole moiety (Figure 1, TA12) in order to block cancer cell invasion and metastasis in vivo [16]. […] Previously, we reported a series of imidazole-fused quinoline compound I and its open-chain analogue compound II, 2-ethyl-1-phenyl-1H-imidazole (Figure 2). […] We speculated that its flexible structure caused this difference in antitumor activity. However, both their antitumor activities were not strong enough as a potent antitumor agent. So, using compound II as a lead, we designed and synthesized several structurally modified derivatives. The effects of LogP and hydrogen bonds on bioavailability were considered, and several aliphatic and aromatic amines were selected and linked to the 1-phenyl imidazole scaffold using a succinyl group as a cross-linker. This approach yielded several novel imidazole derivatives with cLogP values ranging from 1.99 to 4.34.
Figure 2 Title compounds design. Yellow: pharmacophore and Blue: aliphatic/aromatic amine. TEXT PRINTED IN THE PICTURE: I: 300 uM< IC50 < 500 uM | II: 100 uM < IC50 < 300 uM

IC50 (A549) | IC50 (SGC-7901) | IC50 (HeLa) | IC50 [3] | SMILES | IC50 (L-02) | Selectivity Index A549 (L-02) | Selectivity Index HeLa (L-02) | Selectivity Index SGC-7901 (L-02) | Selectivity index, tolerance of normal L-02 cells versus tumor cells (L-02; range over the three tumor cell lines) | apoptosis rate (HeLa cells [1]) | expression of Bcl-2 (HeLa cells [2]; 3.24 µM, time-dependent 3–24 h) | expression of the Bax protein (HeLa cells [2]; 3.24 µM, time-dependent 3–24 h) | Caspase-3 expression increase (HeLa cells [2]; 24 h after treatment, 4f 3.24 µM)
6.6 ± 0.36 µM | 5.37 ± 0.85 µM | 3.24 ± 0.23 µM | – | CCc1nccn1-c1ccc(NC(=O)CCC(=O)Nc2ccc(Br)cc2)cc1 [Compound 4f, 1-(4-(3-(4-Br-Phenylcarbamoyl)propionamide)phenyl)-2-ethyl Imidazol] | 152 ± 10.8 µM | 23.03 | 46.92 | 28.31 | 23–46 fold | 68.2% | decreased | significantly increased | 134.3%
22.6 ± 2.59 µM | 16.4 ± 0.88 µM | 18.3 ± 1.52 µM | – | O=c1[nH]cc(F)c(=O)[nH]1 [Compound 5-FU, 5-fluorouracil, reference compound] | 74.7 ± 7.85 µM | 3.30 | 4.08 | 4.57 | – | 39.6% | – | – | –
– | – | – | 100 to 300 µM | CCc1nccn1-c1ccccc1 [II, 2-ethyl-1-phenyl-1H-imidazole] | – | – | – | – | – | – | – | – | –
